pKi: −log10 of the molar value.
Columns and labels:
[1] = species on record: Homo sapiens; assay: Inhibition of human tryptase assessed as residual enzyme activity using chromogenic H-D-HHT-Ala-Arg-pNA 2AcOH as substrate at 10 uM pre-incubated for 10 mins measured for 30 mins by spectrophotometry relative to untreated control
[2] = biological target: T1, Chymase (Homo sapiens) (UniProt P23946); assay: Inhibition of human chymase assessed as residual enzyme activity using chromogenic N-succinyl-Ala-Ala-Pro-Phe p-nitroanilide as substrate at 10 uM pre-incubated for 10 mins by spectrophotometry relative to untreated control; format: single protein
T1 sequence (whole entry): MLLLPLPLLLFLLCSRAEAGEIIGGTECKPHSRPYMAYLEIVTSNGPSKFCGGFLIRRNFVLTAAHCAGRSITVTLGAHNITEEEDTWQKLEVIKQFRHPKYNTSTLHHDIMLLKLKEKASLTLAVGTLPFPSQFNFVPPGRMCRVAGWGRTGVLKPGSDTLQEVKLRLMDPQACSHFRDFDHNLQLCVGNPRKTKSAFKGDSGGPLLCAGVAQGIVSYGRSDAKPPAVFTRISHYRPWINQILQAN

[3] = Inhibition of bovine pancreatic trypsin using chromogenic N-alpha-bemzoyl-arginine ethyl ester hydrochloride as substrate pre-incubated for 10 mins by spectrophotometry; parameters: species or system Bos taurus
[4] = Ratio of Ki for bovine pancreatic trypsin to Ki for human thrombin

| SMILES | Ratio [1] | Ratio [2] | pKi [3] | Ratio Ki [4] |
| --- | --- | --- | --- | --- |
| COc1cccc(/C=C/S(=O)(=O)Nc2cccc(-c3nnn(Cc4cccc(Cl)c4)n3)c2)c1 | 1 | 1 |  |  |
| O=[N+]([O-])c1cccc(/C=C/S(=O)(=O)Nc2cccc(-c3nnn(Cc4cccc(Cl)c4)n3)c2)c1 | 1 | 0.94 |  |  |
| O=S(=O)(/C=C/c1cccc(Cl)c1)Nc1cccc(OCc2cn(Cc3cc4ccccc4s3)nn2)c1 |  |  | 3.14 |  |
| O=[N+]([O-])c1cccc(/C=C/S(=O)(=O)Nc2cccc(OCc3cn(Cc4cc5ccccc5s4)nn3)c2)c1 | 1 | 0.89 | 3.91 | 71 |
| O=S(=O)(/C=C/c1cccc(C(F)(F)F)c1)Nc1cccc(-c2nnn(Cc3cccc(Cl)c3)n2)c1 | 1 | 0.97 |  |  |
| O=S(=O)(/C=C/c1cccc(F)c1)Nc1cccc(OCc2cn(Cc3cccnc3)nn2)c1 | 1 | 0.99 |  |  |
| O=S(=O)(/C=C/c1cccc(C(F)(F)F)c1)Nc1cccc(OCc2cn(Cc3cccnc3)nn2)c1 | 0.96 | 1 |  |  |
| O=S(=O)(/C=C/c1cccc(Br)c1)Nc1cccc(-c2nnn(Cc3cccc(Cl)c3)n2)c1 | 1 | 0.95 |  |  |
| O=S(=O)(/C=C/c1cccc(Cl)c1)Nc1cccc(OCc2cn(Cc3ccccc3)nn2)c1 | 0.97 | 1 |  |  |
| CS(=O)(=O)Nc1cccc(-c2nnn(Cc3cccc(Cl)c3)n2)c1 | 0.97 | 0.95 |  |  |
| O=S(=O)(/C=C/c1cccc(Cl)c1)Nc1cccc(OCc2cn(Cc3cc4ccccc4[nH]3)nn2)c1 | 0.99 | 1 |  |  |

Further lines, results first:

| Ratio [1] | Ratio [2] | pKi [3] | Ratio Ki [4] | SMILES |
| --- | --- | --- | --- | --- |
| 1 | 1 |  |  | O=[N+]([O-])c1cccc(/C=C/S(=O)(=O)Nc2cccc(OCc3cn(Cc4cccnc4)nn3)c2)c1 |
| 1 | 0.95 | 3.73 | 41 | O=[N+]([O-])c1cccc(/C=C/S(=O)(=O)Nc2cccc(OCc3cn(Cc4nc5ccccc5s4)nn3)c2)c1 |
| 1 | 0.97 |  |  | O=S(=O)(/C=C/c1cccc(Cl)c1)Nc1cccc(-c2nnn(Cc3cccc(Cl)c3)n2)c1 |
| 0.99 | 0.88 | 4.15 | 41 | Nc1cccc(/C=C/S(=O)(=O)Nc2cccc(OCc3cn(Cc4cc5ccccc5s4)nn3)c2)c1 |
| 0.95 | 0.97 |  |  | O=S(=O)(/C=C/c1cccc(Cl)c1)Nc1cccc(OCc2cn(Cc3cccc(Cl)c3)nn2)c1 |
| 0.95 | 0.95 | 3.92 | 48 | O=S(=O)(/C=C/c1cccc(F)c1)Nc1cccc(OCc2cn(Cc3cc4ccccc4s3)nn2)c1 |
| 0.98 | 1 |  |  | O=S(=O)(/C=C/c1cccc(Cl)c1)Nc1cccc(OCc2cn(Cc3nc4ccccc4s3)nn2)c1 |
| 0.98 | 1 |  |  | O=[N+]([O-])c1cccc(/C=C/S(=O)(=O)Nc2cccc(OCc3cn(Cc4cc5ccccc5[nH]4)nn3)c2)c1 |
| 0.97 | 0.91 |  |  | O=S(=O)(/C=C/c1cccc(F)c1)Nc1cccc(-c2nnn(Cc3cccc(Cl)c3)n2)c1 |
| 0.95 | 0.99 |  |  | O=S(=O)(/C=C/c1cccc(Cl)c1)Nc1cccc(OCc2cn(Cc3ccsc3)nn2)c1 |
| 0.99 | 0.98 |  |  | O=S(=O)(/C=C/c1cccc(Cl)c1)Nc1cccc(OCc2cn(Cc3cccnc3)nn2)c1 |
| 0.97 | 0.99 | 3.90 | 64 | O=S(=O)(/C=C/c1cccc(C(F)(F)F)c1)Nc1cccc(OCc2cn(Cc3cc4ccccc4s3)nn2)c1 |
| 0.98 | 0.96 |  |  | O=S(=O)(/C=C/c1cccc(Cl)c1)Nc1cccc(OCc2cn(Cc3ccsc3Br)nn2)c1 |
| 1 | 0.99 |  |  | Cc1cccc(/C=C/S(=O)(=O)Nc2cccc(-c3nnn(Cc4cccc(Cl)c4)n3)c2)c1 |
